Reference: patent publication US10206894B2, “Compounds for use in treatment of mucositis” (priority 2011, dated 2019)

Tests used:
[1] = test system: FaDu human head and neck cancer xenograft; assay: Tumor growth and response to therapy in FaDu xenograft; format: in vivo, nude mice (nu/nu)
Method: Ninety (90) male nude mice (nu/nu) were divided into nine (9) groups of ten […]) mice per group. To ensure that a sufficient number of tumor-bearing animals were available for this study, a total of 100 mice were inoculated s.c. in the flank with 1×10^6 FaDu cells. FaDu (HTB-43) human head and neck cancer cells were obtained from ATCC. These cells were grown in EMEM medium supplemented with 10% Fetal Calf Serum (FCS), 1% penicillin and streptomycin, and 2 mM L-Glutamine. […] The flask was incubated at 37° C. until cells detached. Cells were then sub-cultured at a ratio of 1:3. […] Tumors were measured once every two days with micro-calipers, and tumor volume was calculated as (length×width×width)/2. Where animals were euthanized for tumor volume exceeding the maximum permissible by IACUC rules (1500 mm^3) or tumor ulceration, the last measurement was carried forward in calculations of mean tumor volume.
All animals were weighed every day and their survival recorded, to assess possible differences in animal weight among treatment groups as an indication of possible toxicity resulting from the treatments. […] Any animals whose tumor grew to over 1500 mm^3 were also euthanized.
Further analysis of the tumor volume data was performed by calculating the mean area under the curve (AUC) for the tumor volume for each animal and comparing the groups using an ANOVA on ranks test. Due to the impact of animals euthanized for tumor ulceration or volume in excess of 1500 mm^3, this analysis was performed on data to Day 15 as well as on the full data set to Day 29.

[2] = test system: radiation-induced oral mucositis, left buccal cheek pouch; details: Acute Radiation; published results in nearly identical models; cited from earlier work
[3] = test system: fractionated radiation and cisplatin induced oral mucositis, left buccal cheek pouch; details: published results in nearly identical models; cited from earlier work
[4] = groups receiving cisplatin chemotherapy 5 mg/kg (with vehicle or Compound X)

Row | SMILES | mean weight gain ([1]; cisplatin 5 mg/kg plus vehicle, by Day 15) [%] | average gain of starting weight ([1]; cisplatin 5 mg/kg plus vehicle, by the end of the study) [%] | p, tumor volume AUC to Day 15 vs vehicle control group (ANOVA on ranks) ([1]; cisplatin plus vehicle) | mean tumor volume ([1]; cisplatin plus vehicle, Day 1) [mm^3] | mean tumor volume ([1]; cisplatin plus vehicle, Day 15) [mm^3] | mean tumor volume ([1]; cisplatin plus vehicle, end of the study) [mm^3] | animals euthanized for tumor size [1, 4] [%] | animals euthanized for tumor ulceration [1, 4] [%] | animals survived [1, 4] [%] | % reduction of animal days with OM scores ≥ 3 [2] | % reduction of animal days with OM scores ≥ 3 [3] [%]
1 | N.N.[Cl][Pt][Cl] [cisplatin, reference compound] | 7.2 | 13.0 | 0.011 | 100 | 652 | 302 | 23 | 26.7 | 50 | – | –
2 | N[C@H](CCC(=O)N[C@@H](Cc1c[nH]c2ccccc12)C(=O)O)C(=O)O [SCV-07] | – | – | – | – | – | – | – | – | – | 68.3%-77.6% | 33.3
